Test results from BindingDB's records for doi:10.1016/0922-4106(90)90035-v (Royal Danish School of Pharmacy, 1990).

Assays:
[1] = target: Glutamate receptor ionotropic, NMDA 1 (Rattus norvegicus, UniProt P35439)
Glutamate receptor 3 = Glutamate receptor 3 (Rattus norvegicus, UniProt P19492)
Chain of Glutamate receptor 3 (P19492 whole entry): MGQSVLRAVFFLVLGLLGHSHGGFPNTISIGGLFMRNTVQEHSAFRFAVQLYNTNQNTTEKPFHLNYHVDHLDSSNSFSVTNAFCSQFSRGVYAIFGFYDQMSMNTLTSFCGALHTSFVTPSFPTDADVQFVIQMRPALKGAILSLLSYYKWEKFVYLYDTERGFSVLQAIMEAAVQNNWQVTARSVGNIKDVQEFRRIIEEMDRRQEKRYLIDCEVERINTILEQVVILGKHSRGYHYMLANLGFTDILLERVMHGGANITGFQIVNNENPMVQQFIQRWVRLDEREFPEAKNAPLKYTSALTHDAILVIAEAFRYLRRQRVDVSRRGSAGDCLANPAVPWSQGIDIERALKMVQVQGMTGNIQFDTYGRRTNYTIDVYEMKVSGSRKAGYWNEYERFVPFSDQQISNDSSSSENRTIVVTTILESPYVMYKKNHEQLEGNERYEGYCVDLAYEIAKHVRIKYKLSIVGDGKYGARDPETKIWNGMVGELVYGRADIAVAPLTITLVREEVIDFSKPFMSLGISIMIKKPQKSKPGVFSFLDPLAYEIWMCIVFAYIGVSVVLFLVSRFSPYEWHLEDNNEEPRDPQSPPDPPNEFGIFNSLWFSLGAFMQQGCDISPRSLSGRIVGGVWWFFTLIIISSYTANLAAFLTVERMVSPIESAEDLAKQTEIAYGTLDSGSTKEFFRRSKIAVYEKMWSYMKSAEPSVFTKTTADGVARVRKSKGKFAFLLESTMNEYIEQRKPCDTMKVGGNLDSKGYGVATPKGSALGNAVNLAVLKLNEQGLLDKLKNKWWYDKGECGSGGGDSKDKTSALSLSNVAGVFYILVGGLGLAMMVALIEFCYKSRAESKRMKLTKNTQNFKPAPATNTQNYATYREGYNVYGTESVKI

Ki (Glutamate receptor 3) [µM] | SMILES | Ki [1] [µM]
– | CNC(C(=O)O)c1c(C)o[nH]c1=O (configuration not stated) | > 10
> 10 | Cc1o[nH]c(=O)c1CC(C(=O)O)N(C)C (configuration not stated) [N,N-dimethyl-AMPA] | –
– | Cc1o[nH]c(=O)c1C(C(=O)O)N(C)C (configuration not stated) [N,N-dimethyl-AMAA] | > 10
– | O=C(O)c1cccnc1C(=O)O [pyridine-2,3-dicarboxylic acid] | > 10
> 10 | CNC(Cc1c(C)o[nH]c1=O)C(=O)O (configuration not stated) [N-methyl-AMPA] | –

SMILES | Ki (Glutamate receptor 3) [µM] | Ki [1] [µM]
O=C(O)C1NCCc2o[nH]c(=O)c21 (configuration not stated) [CAS_129091] | > 10 | > 10
